Laboratory results reported in ChEMBL document CHEMBL5465560, “Selectivity Literature for EUbOPEN Chemogenomic Library” (2024).

Legend:
[1] = molecular target: Casein kinase II subunit alpha (Homo sapiens, UniProt P68400); conditions: at 10 µM
[2] = molecular target: Phosphatidylinositol 4,5-bisphosphate 3-kinase catalytic subunit alpha isoform (Homo sapiens) (UniProt P42336); experiment: (§1) Selectivity interaction (KinomeScan (DiscoverX)) EUB0001079a PIK3CA; conditions: at 1 µM
[3] = test system: Phosphatidylinositol 4,5-bisphosphate 3-kinase catalytic subunit alpha isoform (Homo sapiens), P42336 [C420R]; experiment: as §1; conditions: at 1 µM
[4] = test system: Phosphatidylinositol 4,5-bisphosphate 3-kinase catalytic subunit alpha isoform (Homo sapiens), P42336 [E542K]; experiment: as §1; conditions: at 1 µM
[5] = test system: Phosphatidylinositol 4,5-bisphosphate 3-kinase catalytic subunit alpha isoform (Homo sapiens), P42336 [E545A]; experiment: as §1; conditions: at 1 µM
[6] = test system: Phosphatidylinositol 4,5-bisphosphate 3-kinase catalytic subunit alpha isoform (Homo sapiens), P42336 [E545K]; experiment: as §1; conditions: at 1 µM
[7] = test system: Phosphatidylinositol 4,5-bisphosphate 3-kinase catalytic subunit alpha isoform (Homo sapiens), P42336 [H1047L]; experiment: as §1; conditions: at 1 µM
[8] = test system: Phosphatidylinositol 4,5-bisphosphate 3-kinase catalytic subunit alpha isoform (Homo sapiens), P42336 [H1047Y]; experiment: as §1; conditions: at 1 µM
[9] = test system: Phosphatidylinositol 4,5-bisphosphate 3-kinase catalytic subunit alpha isoform (Homo sapiens), P42336 [I800L]; experiment: as §1; conditions: at 1 µM
[10] = test system: Phosphatidylinositol 4,5-bisphosphate 3-kinase catalytic subunit alpha isoform (Homo sapiens), P42336 [M1043I]; experiment: as §1; conditions: at 1 µM
[11] = test system: Phosphatidylinositol 4,5-bisphosphate 3-kinase catalytic subunit alpha isoform (Homo sapiens), P42336 [Q546K]; experiment: as §1; conditions: at 1 µM
[12] = molecular target: T1, Histone-lysine N-methyltransferase EHMT1 (Homo sapiens) (UniProt Q9H9B1); experiment: Selectivity interaction (Transferase panel (protein, RNA, and DNA methyltransferases. and EP300 (acetyltransferase))) EUB0000270b EHMT1
T1 sequence (whole entry): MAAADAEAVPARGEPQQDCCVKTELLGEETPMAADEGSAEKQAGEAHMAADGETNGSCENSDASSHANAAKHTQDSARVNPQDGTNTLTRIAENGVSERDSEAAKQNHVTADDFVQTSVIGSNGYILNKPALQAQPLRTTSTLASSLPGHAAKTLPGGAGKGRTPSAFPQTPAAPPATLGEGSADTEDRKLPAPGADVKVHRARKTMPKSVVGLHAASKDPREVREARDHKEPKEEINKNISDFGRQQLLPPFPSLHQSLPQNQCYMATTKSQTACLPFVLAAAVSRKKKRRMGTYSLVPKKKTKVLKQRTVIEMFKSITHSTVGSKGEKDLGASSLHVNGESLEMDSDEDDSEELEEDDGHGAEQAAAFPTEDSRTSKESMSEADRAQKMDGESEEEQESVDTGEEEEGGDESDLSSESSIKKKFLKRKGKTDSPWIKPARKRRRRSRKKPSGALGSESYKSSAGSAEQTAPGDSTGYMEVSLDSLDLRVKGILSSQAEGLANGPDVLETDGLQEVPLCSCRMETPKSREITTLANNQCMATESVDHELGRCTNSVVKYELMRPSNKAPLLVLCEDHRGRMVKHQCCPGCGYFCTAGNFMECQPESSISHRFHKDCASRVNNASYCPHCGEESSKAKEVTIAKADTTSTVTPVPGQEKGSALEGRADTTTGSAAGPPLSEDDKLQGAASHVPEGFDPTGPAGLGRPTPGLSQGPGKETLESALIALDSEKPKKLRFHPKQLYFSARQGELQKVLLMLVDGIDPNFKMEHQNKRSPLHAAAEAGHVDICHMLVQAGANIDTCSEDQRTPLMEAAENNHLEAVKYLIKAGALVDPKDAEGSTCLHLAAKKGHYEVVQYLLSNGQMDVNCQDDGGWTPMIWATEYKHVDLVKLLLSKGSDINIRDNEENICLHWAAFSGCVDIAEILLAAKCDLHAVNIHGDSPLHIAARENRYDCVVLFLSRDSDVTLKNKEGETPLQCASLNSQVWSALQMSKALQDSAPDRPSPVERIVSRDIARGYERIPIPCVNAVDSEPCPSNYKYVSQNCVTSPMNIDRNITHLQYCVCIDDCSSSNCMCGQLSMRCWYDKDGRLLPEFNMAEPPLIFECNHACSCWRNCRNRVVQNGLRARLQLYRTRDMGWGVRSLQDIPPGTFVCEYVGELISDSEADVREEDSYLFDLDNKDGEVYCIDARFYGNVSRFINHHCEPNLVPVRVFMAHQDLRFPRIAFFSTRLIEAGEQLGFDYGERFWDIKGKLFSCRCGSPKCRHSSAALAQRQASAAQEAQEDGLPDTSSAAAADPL

[13] = molecular target: Calcium/calmodulin-dependent protein kinase type 1 (Homo sapiens) (UniProt Q14012); experiment: Selectivity interaction (KinomeScan (DiscoverX)) EUB0000229b CAMK1; conditions: at 10 µM
Sequence of Calcium/calmodulin-dependent protein kinase type 1 (Homo sapiens) (Q14012 whole entry, looked up): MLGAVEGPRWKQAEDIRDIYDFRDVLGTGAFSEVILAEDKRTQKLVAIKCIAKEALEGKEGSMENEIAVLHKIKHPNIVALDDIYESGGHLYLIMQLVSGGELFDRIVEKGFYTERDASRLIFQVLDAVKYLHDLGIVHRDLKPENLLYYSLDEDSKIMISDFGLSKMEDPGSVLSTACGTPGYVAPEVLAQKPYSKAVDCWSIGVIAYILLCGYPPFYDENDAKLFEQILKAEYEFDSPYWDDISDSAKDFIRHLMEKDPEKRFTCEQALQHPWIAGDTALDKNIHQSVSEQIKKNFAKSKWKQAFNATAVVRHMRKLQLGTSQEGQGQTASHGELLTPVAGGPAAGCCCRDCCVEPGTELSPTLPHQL

Sequence of Phosphatidylinositol 4,5-bisphosphate 3-kinase catalytic subunit alpha isoform (Homo sapiens), P42336 [E545A] (P42336 whole entry E545A, canonical isoform): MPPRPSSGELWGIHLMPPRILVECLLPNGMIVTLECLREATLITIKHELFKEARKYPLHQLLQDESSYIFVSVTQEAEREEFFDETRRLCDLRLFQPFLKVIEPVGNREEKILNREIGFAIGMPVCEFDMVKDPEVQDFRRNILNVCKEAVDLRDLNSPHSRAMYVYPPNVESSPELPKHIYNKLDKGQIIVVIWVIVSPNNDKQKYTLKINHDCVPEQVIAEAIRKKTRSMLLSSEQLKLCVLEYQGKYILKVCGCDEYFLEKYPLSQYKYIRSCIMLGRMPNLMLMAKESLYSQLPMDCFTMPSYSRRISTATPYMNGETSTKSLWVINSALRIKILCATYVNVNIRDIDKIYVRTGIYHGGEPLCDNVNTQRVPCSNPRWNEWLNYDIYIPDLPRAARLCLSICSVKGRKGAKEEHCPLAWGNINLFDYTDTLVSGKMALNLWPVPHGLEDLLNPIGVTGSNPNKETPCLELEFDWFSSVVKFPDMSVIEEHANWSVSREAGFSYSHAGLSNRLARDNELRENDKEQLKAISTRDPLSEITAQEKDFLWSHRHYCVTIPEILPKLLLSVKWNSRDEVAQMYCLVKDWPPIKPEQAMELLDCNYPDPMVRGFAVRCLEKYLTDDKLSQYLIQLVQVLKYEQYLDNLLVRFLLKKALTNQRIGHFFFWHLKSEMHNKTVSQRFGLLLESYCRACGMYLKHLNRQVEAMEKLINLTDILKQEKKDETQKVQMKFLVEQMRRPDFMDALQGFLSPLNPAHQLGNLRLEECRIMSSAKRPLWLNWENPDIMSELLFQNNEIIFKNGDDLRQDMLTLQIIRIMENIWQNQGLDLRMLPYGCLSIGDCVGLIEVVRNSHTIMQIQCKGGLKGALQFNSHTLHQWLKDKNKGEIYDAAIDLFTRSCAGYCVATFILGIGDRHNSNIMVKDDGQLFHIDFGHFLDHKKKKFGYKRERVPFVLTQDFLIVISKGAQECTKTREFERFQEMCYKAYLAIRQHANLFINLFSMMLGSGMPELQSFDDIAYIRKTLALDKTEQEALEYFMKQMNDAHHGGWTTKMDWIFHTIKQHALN
Sequence of Phosphatidylinositol 4,5-bisphosphate 3-kinase catalytic subunit alpha isoform (Homo sapiens), P42336 [C420R] (P42336 whole entry C420R, canonical isoform): as the sequence (P42336 whole entry E545A, canonical isoform) above, with C420R, A545E counted along it
Sequence of Phosphatidylinositol 4,5-bisphosphate 3-kinase catalytic subunit alpha isoform (Homo sapiens), P42336 [E545K] (P42336 whole entry E545K, canonical isoform): as the sequence (P42336 whole entry E545A, canonical isoform) above, with A545K counted along it
Sequence of Phosphatidylinositol 4,5-bisphosphate 3-kinase catalytic subunit alpha isoform (Homo sapiens), P42336 [M1043I] (P42336 whole entry M1043I, canonical isoform): as the sequence (P42336 whole entry E545A, canonical isoform) above, with A545E, M1043I counted along it
Sequence of Phosphatidylinositol 4,5-bisphosphate 3-kinase catalytic subunit alpha isoform (Homo sapiens) (P42336 whole entry, canonical isoform): as the sequence (P42336 whole entry E545A, canonical isoform) above, with A545E counted along it
Sequence of Phosphatidylinositol 4,5-bisphosphate 3-kinase catalytic subunit alpha isoform (Homo sapiens), P42336 [Q546K] (P42336 whole entry Q546K, canonical isoform): as the sequence (P42336 whole entry E545A, canonical isoform) above, with A545E, Q546K counted along it
Sequence of Phosphatidylinositol 4,5-bisphosphate 3-kinase catalytic subunit alpha isoform (Homo sapiens), P42336 [E542K] (P42336 whole entry E542K, canonical isoform): as the sequence (P42336 whole entry E545A, canonical isoform) above, with E542K, A545E counted along it
Sequence of Phosphatidylinositol 4,5-bisphosphate 3-kinase catalytic subunit alpha isoform (Homo sapiens), P42336 [I800L] (P42336 whole entry I800L, canonical isoform): as the sequence (P42336 whole entry E545A, canonical isoform) above, with A545E, I800L counted along it
Sequence of Casein kinase II subunit alpha (P68400 whole entry, looked up, canonical isoform): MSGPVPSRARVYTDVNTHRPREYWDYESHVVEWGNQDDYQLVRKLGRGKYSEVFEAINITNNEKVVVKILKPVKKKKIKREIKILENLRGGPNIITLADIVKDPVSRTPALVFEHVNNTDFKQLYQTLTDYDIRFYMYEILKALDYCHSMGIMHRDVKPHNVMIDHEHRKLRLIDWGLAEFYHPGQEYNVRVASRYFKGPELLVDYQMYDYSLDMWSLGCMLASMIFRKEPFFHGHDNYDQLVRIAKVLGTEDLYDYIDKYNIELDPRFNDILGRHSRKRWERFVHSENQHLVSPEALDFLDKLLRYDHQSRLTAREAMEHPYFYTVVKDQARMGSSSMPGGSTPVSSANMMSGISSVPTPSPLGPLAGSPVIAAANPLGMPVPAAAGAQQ
Sequence of Phosphatidylinositol 4,5-bisphosphate 3-kinase catalytic subunit alpha isoform (Homo sapiens), P42336 [H1047L] (P42336 whole entry H1047L, canonical isoform): as the sequence (P42336 whole entry E545A, canonical isoform) above, with A545E, H1047L counted along it
Sequence of Phosphatidylinositol 4,5-bisphosphate 3-kinase catalytic subunit alpha isoform (Homo sapiens), P42336 [H1047Y] (P42336 whole entry H1047Y, canonical isoform): as the sequence (P42336 whole entry E545A, canonical isoform) above, with A545E, H1047Y counted along it

`COCC(=O)NC/C=C/c1ccc2ncnc(Nc3ccc(Oc4ccc(C)nc4)c(C)c3)c2c1` [CP-724714] was tested, and the % of control [1] was 87%.

In the case of `Nc1cnc(N2CCc3cc(S(=O)(=O)Nc4c(F)cc(Cl)cc4F)cc(N4CCCC4=O)c32)nc1` [TP-020n], the % of control [2] is reported as 76%, the % of control [3] is reported as 84% and the % of control [4] is reported as 72%. The % of control [5] was 100%, the % of control [6] was 100% and the % of control [7] was 60%. It also gave a % of control [8] of 100%, a % of control [9] of 80% and a % of control [10] of 100%. For the same compound, the % of control [11] was 78%.

`Cc1cc(CN)cc(C)c1-c1ncn(C)c1-c1cncn1C` was tested, and the % activity ([12]; at 1 µM) was over 90% and the % activity ([12]; at 10 µM) was over 80%.

`COc1cc(N(C)c2ccnc3ccc(C(F)(F)F)cc23)cc(OC)c1OC` showed a % binding [13] of 59%.
